{"source": "PubChem BioAssay AID2060327", "about": "(Molecular Pharmacology Branch, DTP, NCI, 2025)", "system": "PC-3 multi-cell spheroids, viability", "assay": "Anticancer human tumor PC-3 cell line growth inhibition [IpAb];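 for all read-outs here: spheroids exposed to compounds for 7 days before readout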;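 for viability, T/C: 100% = DMSO vehicle control wells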", "settings": "for IC50: curve of first compound; for viability, T/C: stronger effect = lower value", "summary_of_the_method": "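Multi-cell spheroids of 60% tumour cells, 25% HUVEC and 15% MSC in ultra-low-attachment U-bottom wells, treated with agents combined with ipatasertib or abemaciclib. Half-log ranges top out near clinical Cmax, or 10 microM when Cmax is unknown.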", "key": {"[1]": {"settings": "second compound 0.1 µM, first compound 0.0316 µM"}, "[2]": {"settings": "second compound 0.1 µM, first compound 0.1 µM"}, "[3]": {"settings": "second compound 0.1 µM, first compound 0.316 µM"}, "[4]": {"settings": "second compound 0.1 µM, first compound 1 µM"}, "[5]": {"settings": "second compound 0.1 µM, first compound 3.16 µM"}, "[6]": {"settings": "second compound 0.1 µM, first compound 10 µM"}, "[7]": {"settings": "second compound 0.316 µM, first compound 0.0316 µM"}, "[8]": {"settings": "second compound 0.316 µM, first compound 0.1 µM"}, "[9]": {"settings": "second compound 0.316 µM, first compound 0.316 µM"}, "[10]": {"settings": "second compound 0.316 µM, first compound 1 µM"}, "[11]": {"settings": "second compound 0.316 µM, first compound 3.16 µM"}, "[12]": {"settings": "second compound 0.316 µM, first compound 10 µM"}, "[13]": {"settings": "second compound 1 µM, first compound 0.0316 µM"}, "[14]": {"settings": "second compound 1 µM, first compound 0.1 µM"}, "[15]": {"settings": "second compound 1 µM, first compound 0.316 µM"}, "[16]": {"settings": "second compound 1 µM, first compound 1 µM"}, "[17]": {"settings": "second compound 1 µM, first compound 3.16 µM"}, "[18]": {"settings": "second compound 1 µM, first compound 10 µM"}}}
{"smiles": "C=CC(=O)N1CCN(c2nc(=O)n(-c3c(C)ccnc3C(C)C)c3nc(-c4c(O)cccc4F)c(F)cc23)C(C)C1", "note": "(stereo not given) + CC(C)NCC(C(=O)N1CCN(c2ncnc3c2C(C)CC3O)CC1)c1ccc(Cl)cc1", "values": [{"measurement": "IC50", "setting": "second compound 0.1 µM", "result": "> 10000", "unit": "nM"}, {"measurement": "IC50", "setting": "second compound 0.316 µM", "result": "< 31.6", "unit": "nM"}, {"measurement": "IC50", "setting": "second compound 1 µM", "result": "< 31.6", "unit": "nM"}, {"measurement": "IC50", "setting": "second compound 3.16 µM", "result": "< 31.6", "unit": "nM"}, {"measurement": "IC50", "setting": "second compound 10 µM", "result": "< 31.6", "unit": "nM"}, {"measurement": "viability, T/C", "setting": "[1]", "result": 82, "unit": "%"}, {"measurement": "viability, T/C", "setting": "[2]", "result": 73.5, "unit": "%"}, {"measurement": "viability, T/C", "setting": "[3]", "result": 72.8, "unit": "%"}, {"measurement": "viability, T/C", "setting": "[4]", "result": 83.6, "unit": "%"}, {"measurement": "viability, T/C", "setting": "[5]", "result": 99.1, "unit": "%"}, {"measurement": "viability, T/C", "setting": "[6]", "result": 87.2, "unit": "%"}, {"measurement": "viability, T/C", "setting": "[7]", "result": 44.4, "unit": "%"}, {"measurement": "viability, T/C", "setting": "[8]", "result": 44.4, "unit": "%"}, {"measurement": "viability, T/C", "setting": "[9]", "result": 43.7, "unit": "%"}, {"measurement": "viability, T/C", "setting": "[10]", "result": 34.7, "unit": "%"}, {"measurement": "viability, T/C", "setting": "[11]", "result": 41.7, "unit": "%"}, {"measurement": "viability, T/C", "setting": "[12]", "result": 43.1, "unit": "%"}, {"measurement": "viability, T/C", "setting": "[13]", "result": 26.5, "unit": "%"}, {"measurement": "viability, T/C", "setting": "[14]", "result": 27.1, "unit": "%"}, {"measurement": "viability, T/C", "setting": "[15]", "result": 27, "unit": "%"}, {"measurement": "viability, T/C", "setting": "[16]", "result": 25.8, "unit": "%"}, {"measurement": "viability, T/C", "setting": "[17]", "result": 26.3, "unit": "%"}, {"measurement": "viability, T/C", "setting": "[18]", "result": 23.2, "unit": "%"}, {"measurement": "viability, T/C", "setting": "second compound 3.16 µM, first compound 0.0316 µM", "result": 15.1, "unit": "%"}, {"measurement": "viability, T/C", "setting": "second compound 3.16 µM, first compound 0.1 µM", "result": 15, "unit": "%"}, {"measurement": "viability, T/C", "setting": "second compound 3.16 µM, first compound 0.316 µM", "result": 15.5, "unit": "%"}, {"measurement": "viability, T/C", "setting": "second compound 3.16 µM, first compound 1 µM", "result": 15.6, "unit": "%"}, {"measurement": "viability, T/C", "setting": "second compound 3.16 µM, first compound 3.16 µM", "result": 17.1, "unit": "%"}, {"measurement": "viability, T/C", "setting": "second compound 3.16 µM, first compound 10 µM", "result": 13.1, "unit": "%"}, {"measurement": "viability, T/C", "setting": "second compound 10 µM, first compound 0.0316 µM", "result": 14.6, "unit": "%"}, {"measurement": "viability, T/C", "setting": "second compound 10 µM, first compound 0.1 µM", "result": 13.7, "unit": "%"}, {"measurement": "viability, T/C", "setting": "second compound 10 µM, first compound 0.316 µM", "result": 13.4, "unit": "%"}, {"measurement": "viability, T/C", "setting": "second compound 10 µM, first compound 1 µM", "result": 14, "unit": "%"}, {"measurement": "viability, T/C", "setting": "second compound 10 µM, first compound 3.16 µM", "result": 14.5, "unit": "%"}, {"measurement": "viability, T/C", "setting": "second compound 10 µM, first compound 10 µM", "result": 7.96, "unit": "%"}]}
{"smiles": "Cc1nc(NC(=O)N2CCCC2C(N)=O)sc1-c1ccnc(C(C)(C)C(F)(F)F)c1", "note": "(stereo not given) + CCN1CCN(Cc2ccc(Nc3ncc(F)c(-c4cc(F)c5nc(C)n(C(C)C)c5c4)n3)nc2)CC1", "values": [{"measurement": "IC50", "setting": "second compound 0.01 µM", "result": 1120, "unit": "nM"}, {"measurement": "IC50", "setting": "second compound 0.0316 µM", "result": 1380, "unit": "nM"}, {"measurement": "IC50", "setting": "second compound 0.1 µM", "result": 489, "unit": "nM"}, {"measurement": "IC50", "setting": "second compound 0.316 µM", "result": 523, "unit": "nM"}, {"measurement": "IC50", "setting": "second compound 1 µM", "result": 172, "unit": "nM"}, {"measurement": "viability, T/C", "setting": "second compound 0.01 µM, first compound 0.0316 µM", "result": 68.2, "unit": "%"}, {"measurement": "viability, T/C", "setting": "second compound 0.01 µM, first compound 0.1 µM", "result": 48.2, "unit": "%"}, {"measurement": "viability, T/C", "setting": "second compound 0.01 µM, first compound 0.316 µM", "result": 50.6, "unit": "%"}, {"measurement": "viability, T/C", "setting": "second compound 0.01 µM, first compound 1 µM", "result": 51.2, "unit": "%"}, {"measurement": "viability, T/C", "setting": "second compound 0.01 µM, first compound 3.16 µM", "result": 43.4, "unit": "%"}, {"measurement": "viability, T/C", "setting": "second compound 0.01 µM, first compound 10 µM", "result": 13.6, "unit": "%"}, {"measurement": "viability, T/C", "setting": "second compound 0.0316 µM, first compound 0.0316 µM", "result": 54.5, "unit": "%"}, {"measurement": "viability, T/C", "setting": "second compound 0.0316 µM, first compound 0.1 µM", "result": 52.7, "unit": "%"}, {"measurement": "viability, T/C", "setting": "second compound 0.0316 µM, first compound 0.316 µM", "result": 58.6, "unit": "%"}, {"measurement": "viability, T/C", "setting": "second compound 0.0316 µM, first compound 1 µM", "result": 53.9, "unit": "%"}, {"measurement": "viability, T/C", "setting": "second compound 0.0316 µM, first compound 3.16 µM", "result": 39.1, "unit": "%"}, {"measurement": "viability, T/C", "setting": "second compound 0.0316 µM, first compound 10 µM", "result": 11.1, "unit": "%"}, {"measurement": "viability, T/C", "setting": "[1]", "result": 49, "unit": "%"}, {"measurement": "viability, T/C", "setting": "[2]", "result": 55.5, "unit": "%"}, {"measurement": "viability, T/C", "setting": "[3]", "result": 51.2, "unit": "%"}, {"measurement": "viability, T/C", "setting": "[4]", "result": 47.5, "unit": "%"}, {"measurement": "viability, T/C", "setting": "[5]", "result": 32.9, "unit": "%"}, {"measurement": "viability, T/C", "setting": "[6]", "result": 11.5, "unit": "%"}, {"measurement": "viability, T/C", "setting": "[7]", "result": 59.4, "unit": "%"}, {"measurement": "viability, T/C", "setting": "[8]", "result": 63.2, "unit": "%"}, {"measurement": "viability, T/C", "setting": "[9]", "result": 55.6, "unit": "%"}, {"measurement": "viability, T/C", "setting": "[10]", "result": 41.5, "unit": "%"}, {"measurement": "viability, T/C", "setting": "[11]", "result": 27.8, "unit": "%"}, {"measurement": "viability, T/C", "setting": "[12]", "result": 11.9, "unit": "%"}, {"measurement": "viability, T/C", "setting": "[13]", "result": 62, "unit": "%"}, {"measurement": "viability, T/C", "setting": "[14]", "result": 53.6, "unit": "%"}, {"measurement": "viability, T/C", "setting": "[15]", "result": 45.9, "unit": "%"}, {"measurement": "viability, T/C", "setting": "[16]", "result": 29.6, "unit": "%"}, {"measurement": "viability, T/C", "setting": "[17]", "result": 20.6, "unit": "%"}, {"measurement": "viability, T/C", "setting": "[18]", "result": 14.4, "unit": "%"}]}
